In patent US10758534B2 (Vertex Pharmaceuticals Incorporated, priority 2014, dated 2020):

target: T1, F508del (Homo sapiens, UniProt P13569, DEL508-508); experiment: Protocol 1: membrane potential optical assay (FLIPR III, voltage sensing dye), identification of potentiator compounds; type: cell-based; details: Table 3, compounds of Table 1
T1 construct: expressed in transfected cells
Procedure, shortened: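 Membrane potential in forskolin-activated, temperature-rescued F508del NIH 3T3 cells is followed with a voltage-sensing dye on FLIPR III. A chloride ion gradient created at the single addition step provides the driving force, after prior compound treatment.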

T1 sequence (P13569 with tags, fused parts or gaps DEL508-508): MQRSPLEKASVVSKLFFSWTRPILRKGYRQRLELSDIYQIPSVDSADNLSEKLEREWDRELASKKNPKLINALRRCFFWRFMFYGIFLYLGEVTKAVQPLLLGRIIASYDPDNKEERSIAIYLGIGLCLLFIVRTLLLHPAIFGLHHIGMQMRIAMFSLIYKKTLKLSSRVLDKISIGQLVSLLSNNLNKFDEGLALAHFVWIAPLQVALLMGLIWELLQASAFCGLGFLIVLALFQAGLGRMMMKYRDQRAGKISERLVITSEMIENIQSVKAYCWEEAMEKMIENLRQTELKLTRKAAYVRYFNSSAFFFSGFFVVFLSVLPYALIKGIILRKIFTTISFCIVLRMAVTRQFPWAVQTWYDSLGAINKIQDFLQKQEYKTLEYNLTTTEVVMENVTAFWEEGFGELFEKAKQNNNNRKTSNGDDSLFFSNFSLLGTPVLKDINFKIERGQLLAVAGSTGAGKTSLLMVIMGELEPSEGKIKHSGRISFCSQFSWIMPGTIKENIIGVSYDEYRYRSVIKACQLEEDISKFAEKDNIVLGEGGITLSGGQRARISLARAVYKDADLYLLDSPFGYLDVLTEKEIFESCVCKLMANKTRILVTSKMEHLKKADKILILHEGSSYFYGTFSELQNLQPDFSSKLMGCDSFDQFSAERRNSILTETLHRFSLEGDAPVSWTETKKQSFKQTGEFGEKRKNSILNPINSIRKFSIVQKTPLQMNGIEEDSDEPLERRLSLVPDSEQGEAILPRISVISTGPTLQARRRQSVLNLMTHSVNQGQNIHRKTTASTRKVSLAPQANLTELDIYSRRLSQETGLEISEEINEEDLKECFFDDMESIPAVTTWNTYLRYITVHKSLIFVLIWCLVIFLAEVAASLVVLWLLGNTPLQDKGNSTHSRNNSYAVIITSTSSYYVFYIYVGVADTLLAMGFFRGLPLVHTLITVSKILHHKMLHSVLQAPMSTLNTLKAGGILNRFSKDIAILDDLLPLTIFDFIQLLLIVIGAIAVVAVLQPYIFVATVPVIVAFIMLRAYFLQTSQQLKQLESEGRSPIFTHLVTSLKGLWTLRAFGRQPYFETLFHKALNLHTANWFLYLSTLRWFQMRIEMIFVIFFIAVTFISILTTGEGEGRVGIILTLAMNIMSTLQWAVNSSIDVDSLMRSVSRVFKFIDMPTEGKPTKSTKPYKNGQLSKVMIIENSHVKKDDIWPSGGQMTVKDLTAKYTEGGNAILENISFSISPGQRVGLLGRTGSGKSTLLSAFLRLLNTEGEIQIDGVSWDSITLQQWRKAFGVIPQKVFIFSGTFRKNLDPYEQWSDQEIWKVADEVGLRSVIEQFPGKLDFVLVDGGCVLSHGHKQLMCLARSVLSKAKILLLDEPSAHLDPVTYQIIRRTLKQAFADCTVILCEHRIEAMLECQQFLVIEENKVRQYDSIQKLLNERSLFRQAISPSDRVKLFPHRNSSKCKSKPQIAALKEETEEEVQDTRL

EC30	SMILES
+ (“+” means greater than 10 uM)	C[C@@H]1CN(c2nc(-c3cc(O)cc(F)c3)ccc2C(=O)NS(=O)(=O)c2ccccc2)C(C)(C)C1 [Compound 1538, N-(benzenesulfonyl)-6-(3-fluoro-5-hydroxy-phenyl)-2-[(4S)-2,2,4-trimethylpyrrolidin-1-yl]pyridine-3-carboxamide]
+++ (“+++” means <3 uM)	CCOc1cccc2c1CN(Cc1c(C)cc(C)cc1C)C2(C)C(=O)NS(=O)(=O)c1ccccc1 (stereo not shown) [Compound 1539, N-(benzenesulfonyl)-4-ethoxy-1-methyl-2-[(2,4,6-trimethylphenyl)methyl]isoindoline-1-carboxamide]
+ (“+” means greater than 10 uM)	Cc1cc(C)c(Oc2nc(C3=CCN(C(=O)C(C)C)CC3)ccc2C(=O)NS(=O)(=O)c2cccc(N)n2)c(C)c1 [Compound 1540, N-[(6-amino-2-pyridyl)sulfonyl]-6-[1-(2-methylpropanoyl)-3,6-dihydro-2H-pyridin-4-yl]-2-(2,4,6-trimethylphenoxy)pyridine-3-carboxamide]
+++ (“+++” means <3 uM)	CCOc1cccc2c1CN(Cc1c(C)cc(C)cc1C)[C@]2(C)C(=O)NS(=O)(=O)c1ccc[nH]c1=O [Compound 1541, (1S)-4-ethoxy-1-methyl-N-[(2-oxo-1H-pyridin-3-yl)sulfonyl]-2-[(2,4,6-trimethylphenyl)methyl]isoindoline-1-carboxamide]
+++ (“+++” means <3 uM)	CCOc1cccc2c1CN(Cc1c(C)cc(C)cc1C)C2(C)C(=O)NS(=O)(=O)c1cscn1 (stereo not shown) [Compound 1542, 4-ethoxy-1-methyl-N-thiazol-4-ylsulfonyl-2-[(2,4,6-trimethylphenyl)methyl]isoindoline-1-carboxamide]
+++ (“+++” means <3 uM)	CCOc1cccc2c1CN(Cc1c(C)cc(C)cc1C)C2(C)C(=O)NS(=O)(=O)c1nccs1 (stereo not shown) [Compound 1546, 4-ethoxy-1-methyl-N-thiazol-2-ylsulfonyl-2-[(2,4,6-trimethylphenyl)methyl]isoindoline-1-carboxamide]
+++ (“+++” means <3 uM)	COc1ccccc1S(=O)(=O)NC(=O)c1cc(C(C)(C)C)nn1Cc1c(C)cccc1C [Compound 1551, 5-tert-butyl-2-[(2,6-dimethylphenyl)methyl]-N-(2-methoxyphenyl)sulfonyl-pyrazole-3-carboxamide]
+++ (“+++” means <3 uM)	Cc1cc(C)c(Oc2nc(N3CCCC3C)ccc2C(=O)NS(=O)(=O)c2cccc(N)n2)c(C)c1 (stereo not shown) [Compound 1553, N-[(6-amino-2-pyridyl)sulfonyl]-6-(2-methylpyrrolidin-1-yl)-2-(2,4,6-trimethylphenoxy)pyridine-3-carboxamide]
+++ (“+++” means <3 uM)	CCOc1cccc2c1CN(Cc1c(C)cc(C)cc1C)C2(C)C(=O)NS(=O)(=O)c1cnc(NC(C)=O)s1 (stereo not shown) [Compound 1555, N-(2-acetamidothiazol-5-yl)sulfonyl-4-ethoxy-1-methyl-2-[(2,4,6-trimethylphenyl)methyl]isoindoline-1-carboxamide]
++ (“++” means between 3 uM and 10 uM)	Cc1cc(C)c(Oc2nc(C3=CCC4(CC3)OCCO4)ccc2C(=O)NS(=O)(=O)c2cccc(N)n2)c(C)c1 [Compound 1558, N-[(6-amino-2-pyridyl)sulfonyl]-6-(1,4-dioxaspiro[4.5]dec-8-en-8-yl)-2-(2,4,6-trimethylphenoxy)pyridine-3-carboxamide]

Further lines, the compound ahead of its results:

SMILES	EC30
CC(C)COc1cc(F)cc(-c2ccc(C(=O)NS(=O)(=O)c3cccc(N)n3)c(OC3CCC3C3CC3)n2)c1 (stereo not shown) [Compound 1530, N-[(6-amino-2-pyridyl)sulfonyl]-2-(2-cyclopropylcyclobutoxy)-6-(3-fluoro-5-isobutoxy-phenyl)pyridine-3-carboxamide]	+++ (“+++” means <3 uM)
CC(C)COc1cc(F)cc(-c2ccc(C(=O)NS(=O)(=O)c3cccc(N)n3)c(C3=CC(C)(C)OC3(C)C)n2)c1 [Compound 1531, N-[(6-amino-2-pyridyl)sulfonyl]-6-(3-fluoro-5-isobutoxy-phenyl)-2-(2,2,5,5-tetramethyl-3-furyl)pyridine-3-carboxamide]	++ (“++” means between 3 uM and 10 uM)
Cc1cn(-c2ccc(C(=O)NS(=O)(=O)c3cccc(N)n3)c(N3C[C@@H](C)CC3(C)C)n2)nc1OCC(C)C [Compound 1532, N-[(6-amino-2-pyridyl)sulfonyl]-6-(3-isobutoxy-4-methyl-pyrazol-1-yl)-2-[(4S)-2,2,4-trimethylpyrrolidin-1-yl]pyridine-3-carboxamide]	+++ (“+++” means <3 uM)
CC(=O)N(C)C1CCN(S(=O)(=O)NC(=O)c2ccc(-c3cc(F)cc(OCC(C)C)c3)nc2N2CC(C)CC2(C)C)C1 (stereo not shown) [Compound 1533, N—[3-[acetyl(methyl)amino]pyrrolidin-1-yl]sulfonyl-6-(3-fluoro-5-isobutoxy-phenyl)-2-(2,2,4-trimethylpyrrolidin-1-yl)pyridine-3-carboxamide]	+++ (“+++” means <3 uM)
C[C@@H]1CN(c2nc(C3CCOC3)ccc2C(=O)NS(=O)(=O)c2cccc(N)n2)C(C)(C)C1 (stereo partly drawn) [Compound 1534, N-[(6-amino-2-pyridyl)sulfonyl]-6-tetrahydrofuran-3-yl-2-[(4S)-2,2,4-trimethylpyrrolidin-1-yl]pyridine-3-carboxamide]	++ (“++” means between 3 uM and 10 uM)
COc1ccc(/C=C/c2cc(C(=O)NS(=O)(=O)c3cccc(N)n3)c(N3C[C@@H](C)CC3(C)C)nc2C(C)(C)C)cc1 [Compound 1535, N-[(6-amino-2-pyridyl)sulfonyl]-6-tert-butyl-5-[(E)-2-(4-methoxyphenyl)vinyl]-2-[(4S)-2,2,4-trimethylpyrrolidin-1-yl]pyridine-3-carboxamide]	+++ (“+++” means <3 uM)
COc1ccc(C(=O)NS(=O)(=O)c2cccc(N)n2)c(N2C[C@@H](C)CC2(C)C)n1 [Compound 1536, N-[(6-amino-2-pyridyl)sulfonyl]-6-methoxy-2-[(4S)-2,2,4-trimethylpyrrolidin-1-yl]pyridine-3-carboxamide]	++ (“++” means between 3 uM and 10 uM)
Cc1nc(OCC(C)C)ccc1-c1ccc(C(=O)NS(=O)(=O)c2cccc(N)n2)c(N2[C@H](C)CC[C@@H]2C)n1 [Compound 1537, N-[(6-amino-2-pyridyl)sulfonyl]-2-[(2R,5S)-2,5-dimethylpyrrolidin-1-yl]-6-(6-isobutoxy-2-methyl-3-pyridyl)pyridine-3-carboxamide]	+++ (“+++” means <3 uM)
CC1CN(c2ncc(C3=CC4CCC3(C)C4(C)C)cc2C(=O)NS(=O)(=O)c2cccc(N)n2)C(C)(C)C1 (stereo not shown) [Compound 1544, N-[(6-amino-2-pyridyl)sulfonyl]-5-(4,7,7-trimethyl-3-bicyclo[2.2.1]hept-2-enyl)-2-(2,2,4-trimethylpyrrolidin-1-yl)pyridine-3-carboxamide]	+++ (“+++” means <3 uM)
COC1CCCN(S(=O)(=O)NC(=O)c2ccc(-c3cc(F)cc(OCC(C)C)c3)nc2N2C[C@@H](C)CC2(C)C)C1 (stereo partly drawn) [Compound 1545, 6-(3-fluoro-5-isobutoxy-phenyl)-N-[(3-methoxy-1-piperidyl)sulfonyl]-2-[(4S)-2,2,4-trimethylpyrrolidin-1-yl]pyridine-3-carboxamide]	+++ (“+++” means <3 uM)
C[C@@H]1CN(c2nc(C(C)(C)C)c(/C=C/C(=O)O)cc2C(=O)NS(=O)(=O)c2cccc(N)n2)C(C)(C)C1 [Compound 1547, (E)-3-[5-[(6-amino-2-pyridyl)sulfonylcarbamoyl]-2-tert-butyl-6-[(4S)-2,2,4-trimethylpyrrolidin-1-yl]-3-pyridyl]prop-2-enoic acid]	++ (“++” means between 3 uM and 10 uM)
CC(C)COc1cc(F)cc(-c2ccc(C(=O)NS(=O)(=O)c3cccc(N)n3)c(N3CC(C)OCC3(C)C)n2)c1 (stereo not shown) [Compound 1548, N-[(6-amino-2-pyridyl)sulfonyl]-6-(3-fluoro-5-isobutoxy-phenyl)-2-(2,5,5-trimethylmorpholin-4-yl)pyridine-3-carboxamide]	+++ (“+++” means <3 uM)
Cc1cc(C)c(Oc2cc(-c3cc(F)cc(OCC(C)C)c3)ccc2C(=O)NS(=O)(=O)c2cccc(N)n2)c(C)c1 [Compound 1549, N-[(6-amino-2-pyridyl)sulfonyl]-4-(3-fluoro-5-isobutoxy-phenyl)-2-(2,4,6-trimethylphenoxy)benzamide]	+++ (“+++” means <3 uM)
C[C@@H]1CN(c2ncc(C(F)(F)F)cc2C(=O)NS(=O)(=O)c2cccc(N)n2)C(C)(C)C1 [Compound 1550, N-[(6-amino-2-pyridyl)sulfonyl]-5-(trifluoromethyl)-2-[(4S)-2,2,4-trimethylpyrrolidin-1-yl]pyridine-3-carboxamide]	++ (“++” means between 3 uM and 10 uM)
CC(C)COc1cc(F)cc(-c2ccc(C(=O)NS(=O)(=O)c3cccc(N)n3)c(C3CC(C)(C)CC3(C)C)n2)c1 (stereo not shown) [Compound 1552]	+++ (“+++” means <3 uM)
CNC1CCN(S(=O)(=O)NC(=O)c2ccc(-c3cc(F)cc(OCC(C)C)c3)nc2N2CC(C)CC2(C)C)C1 (stereo not shown) [Compound 1554, 6-(3-fluoro-5-isobutoxy-phenyl)-N—[3-(methylamino)pyrrolidin-1-yl]sulfonyl-2-(2,2,4-trimethylpyrrolidin-1-yl)pyridine-3-carboxamide]	+++ (“+++” means <3 uM)
C[C@@H]1CN(c2nc(C(F)(F)F)ccc2C(=O)NS(=O)(=O)c2cccc(N)n2)C(C)(C)C1 [Compound 1556, N-[(6-amino-2-pyridyl)sulfonyl]-6-(trifluoromethyl)-2-[(4S)-2,2,4-trimethylpyrrolidin-1-yl]pyridine-3-carboxamide]	+++ (“+++” means <3 uM)
CC(C)COc1cc(F)cc(-c2ccc(C(=O)NS(=O)(=O)N3CC[C@H](N)C3)c(N3C[C@@H](C)CC3(C)C)n2)c1 [Compound 1557, N-[(3S)-3-aminopyrrolidin-1-yl]sulfonyl-6-(3-fluoro-5-isobutoxy-phenyl)-2-[(4S)-2,2,4-trimethylpyrrolidin-1-yl]pyridine-3-carboxamide]	+++ (“+++” means <3 uM)
